Test results taken from patent US5674878A, “Anellated dihydropyridines and the use thereof for the production of pharmaceutical preparations” (Boehringer Ingelheim KG, priority 1992, dated 1997).

Test system: unselective cation channels (UCC)
Test: Thapsigargin (0.1 μM) stimulated Ca^2+ entry through unselective cation channels in fura-2-charged RBL-hm 1 cells
Type: cell-based, rat
Conditions: RBL-hm 1 cells, Thapsigargin (0.1 μM) stimulation, 10 μM test substance (Table 21)
Text: As a measurement of the cell activation or as a measurement of the inhibition thereof by UCC blockers, the kinetics of the cytoplasmic calcium ion concentration in fura-2-charged cells is quantified fluorometrically using the method described by GRYNKIEWICZ et al. (1985).
Consequently the Ca^2+ -stores are rapidly depleted. As described by J. PUTNEY (Calcium, 11, 611-624, 1990) the depletion of these stores constitutes the physiological stimulation for opening up unselective cation channels in the cell membrane. The result of this is a massive influx of Na^+ and Ca^2+ into the cell. Because of these properties, Thapsigargin is suitable as an indirect stimulator for agonist- and IP3-independent opening up of the unselective cation channels.
The functional endothelin antagonism of the substances according to the invention is mediated through a blockade of the unselective cation channels. Consequently, detection of a functional Thapsigargin-antagonism on RBL-hm1 cells is also a suitable screening method for functional endothelin antagonists.
For screening purposes, fura-2-charged adhesive RBL-hm 1 cells are stimulated with 0.1 μM Thapsigargin in a Ca^2+ -free incubation medium. After 4 minutes, extracellular Ca^2+ is restored to a concentration of 1.5 mM and, using the fura-2-fluorescence, the excessive increase in the cytoplasmic Ca^2+ -concentration caused by a massive transmembranal Ca^2+ -entry through unselective cation channels is recorded.
This entry is to be inhibited solely by unselective cation channel blockers in a dosage-dependent manner. Neither conventional calcium antagonists nor specific blockers of agonists which stimulate the IP3 -turnover are able to inhibit the transmembranal Ca^2+ -entry triggered indirectly by Thapsigargin. The compounds of the present invention are distinguished by their inhibition of UCC.
The fluorometric calcium measurement in the cytoplasm of individual adhering RBL-hm1 cells is carried out analogously to the method described by KUDO and OGURA (1986) for neuronal cells. An AXIOVERT 35 fluorescence microscope made by ZEISS is used in conjunction with an imaging system made by HAMAMATSU, consisting of the ICMS-image processing system, residual light camera with control unit and image intensifier DVS 3000.
The kinetics of the cytoplasmic Ca^2+ -concentration is recorded continuously as a concentration/time curve after the cell activation stimulated by Thapsigargin (0.1 μM). The curves of two activated cell cultures are compared in the presence and absence of 10 μM test substance. The area under these curves (area under the curve=AUC) is integrated and recorded as a measurement of cell activation. The inhibitory potency of the UCC-blockers tested is determined using the following equation: [formula] %H=the percentage inhibition of the calcium entry through unselective cation channels which is stimulated and inhibited by 10 μM of test substance.
AUCinh =area under the curve recorded in the presence of the stimulant plus 10 μM inhibitory test substance.
AUCcontrol =area under the curve which is recorded only after the addition of the stimulant.
The percentage inhibition of UCC after Thapsigargin stimulation (0.1 μM Thapsigargin) in RBL-hm 1 cells is given. The uniform concentration of the test substances is 10^-5 mol).

SMILES	% Inhibition
COc1cc2c(cc1OC)C(=C(C(=O)NC(Cc1ccccc1)c1ccccc1)c1ccccc1)NCC2 (stereo not shown) [Q]	64.28%
COCCNC(=O)C(=C1NCCc2cc(OC)c(OC)cc21)c1ccccc1 [compound 17]	52.53%
COCCCNC(=O)C(=C1NCCc2cc(OC)c(OC)cc21)c1ccccc1 [compound 18]	57.53%
COc1cc2c(cc1OC)C(=C(C(=O)NCCCN(C)C)c1ccccc1)NCC2 [compound 20]	57.38%
COc1cc2c(cc1OC)C(C(C(=O)Nc1cccnc1)c1ccccc1)=NCC2 (stereo not shown) [compound 33]	60.55%
COc1cc2c(cc1OC)C(C(C(=O)N(C)C)c1ccccc1)=NCC2 (stereo not shown) [compound 36]	52.19%
CCN(CC)C(=O)C(C1=NCCc2cc(OC)c(OC)cc21)c1ccccc1 (stereo not shown) [compound 37]	75.77%
COc1cc2c(cc1OC)C(C(C(=O)N1CCOCC1)c1ccccc1)=NCC2 (stereo not shown) [compound 39]	48.62%
COc1cc2c(cc1OC)C(C(C(=O)N1CCSCC1)c1ccccc1)=NCC2 (stereo not shown) [compound 40]	64.99%
COc1cc2c(cc1OC)C(=C(C(=O)N1CCN(Cc3ccccc3)CC1)c1ccccc1)NCC2 [compound 42]	84.83%
COc1cc2c(cc1OC)C(C(C(=O)N1CCN(C)CC1)c1ccccc1)=NCC2 (stereo not shown) [compound 43]	48.69%
O=C(NCCc1ccc2c(c1)OCO2)C(=C1NCCc2cc3c(cc21)OCO3)c1ccccc1 [compound 46]	68.06%
O=C(NCCN1CCOCC1)C(=C1NCCc2cc3c(cc21)OCO3)c1ccccc1 [compound 48]	61.34%
COc1ccc(CCNC(=O)C(=C2NCCc3c2[nH]c2ccccc32)c2ccccc2)cc1OC [compound 83]	66.76%
O=C(NCCN1CCOCC1)C(=C1NCCc2c1[nH]c1ccccc21)c1ccccc1 [compound 89]	53.38%
COc1cc2c(cc1OC)C(C(C(=O)NCCC(c1ccccc1)c1ccccc1)c1ccccc1)=NCC2 (stereo not shown) [compound 101]	59.62%
COc1cc2c(cc1OC)C(C(C(=O)NCCc1ccccc1C)c1ccccc1)=NCC2 (stereo not shown) [compound 102]	80.77%
COc1cc(CCNC(=O)C(C2=NCCc3cc(OC)c(OC)cc32)c2ccccc2)cc(OC)c1 (stereo not shown) [compound 104]	54.67%
COc1cccc(CCNC(=O)C(C2=NCCc3cc(OC)c(OC)cc32)c2ccccc2)c1 (stereo not shown) [compound 105]	45.09%
COc1cc2c(cc1OC)C(C(C(=O)NCc1cc(C)ccc1C)c1ccccc1)=NCC2 (stereo not shown) [compound 106]	65.69%
COc1cc2c(cc1OC)C(C(C(=O)NCCCc1ccc(OC)c(OC)c1OC)c1ccccc1)=NCC2 (stereo not shown) [compound 108]	44.45%
COc1cc2c(cc1OC)C(=C(C(=O)NCCc1ccc(OC)c(C)c1C)c1ccccc1)NCC2 [compound 109]	74.18%
CCOc1ccccc1CCCNC(=O)C(C1=NCCc2cc(OC)c(OC)cc21)c1ccccc1 (stereo not shown) [compound 115]	75.53%
COc1cc2c(cc1OC)C(=C(C(=O)NCC13CC4CC(CC(C4)C1)C3)c1ccccc1)NCC2 [compound 132]	65.14%
COc1cc(N=[N+]=[N-])ccc1CCNC(=O)C(C1=NCCc2cc(OC)c(OC)cc21)c1ccccc1 (stereo not shown) [compound 133]	68.15%

Same assay, conditions: Table 16; %inhibition, 10 μM test substance

SMILES	%
O=C(NCCc1cccc(C(F)(F)F)c1)C(C1=NCCc2cc(OCc3ccccc3)c(Cl)cc21)c1ccccc1 (stereo not shown) [drawing 223]	32.90%

Same assay, conditions: Table 17; 10 μM test substance

SMILES	percent inhibition of Ca2+ entry
COc1cc2c(cc1OC)C(C(C(=O)NCCC(C)(C)C)c1ccccc1)=NCC2 (stereo not shown)	80.97%
COc1cc(N=[N+]=[N-])ccc1CCNC(=O)C(C1=NCCc2cc(OC)c(OC)cc21)c1ccccc1 (stereo not shown) [drawing 231]	68.2%

Same assay, conditions: Table 20; 10 μM test substance

SMILES	percent inhibition of Ca2+ entry
COc1cc2c(cc1O)CCN=C2C(C(=O)N(CCc1ccc(OC)c(OC)c1OC)CCc1ccc(OC)c(OC)c1OC)c1ccccc1 (stereo not shown)	86.70%
O=C(NCCc1cccc(C(F)(F)F)c1)C(C1=NCCc2cc(OCc3ccccc3)c(Cl)cc21)c1ccccc1 (stereo not shown) [drawing 274]	32.9%

Test system: RBL-2H3-cells
Test: DNP-BSA antigen-induced activation of sensitised RBL-2H3 cells
Type: cell-based
Conditions: Rattus norvegicus, read-out: inhibition of the antigen-induced cell activation
Description: Individual RBL-2H3-cells (a tumour cell line related to the mast cells) adhering to glass slides are used.
The cultivation and attachment of the RBL-2H3-cells are carried out by the method described by HIDE and BEAVEN (1991). In order to sensitise the adhesive RBL-2H3-cells the cells are incubated for 2 hours at ambient temperature with a 1:2000 diluted commercial gammaglobulin E-solution against a dinitrophenol-bovine serum albumin complex (DNP-BSA-antigen). The cells are then washed. By the addition of 0.1 ml of DNP-BSA-solution (10 μg/ml) there is a massive immunological cell activation which is mediated by a cytoplasmic Ca^2+ -overload. The fluorometric calcium measurement in the cytoplasm of individual adhering RBL-2H3-cells is carried out analogously to the method described by KUDO and OGURA (1986) for neuronal cells, which is also explained hereinbefore in this specification.

SMILES	inhibition at 10 µM
O=C(O)c1cc(=O)c2c(OCC(O)COc3cccc4oc(C(=O)O)cc(=O)c34)cccc2o1 [chromoglycate]	~50%

Test system: unselective cation channels (UCC)
Test: Thapsigargin (0.1 μM) stimulated Ca^2+ entry through unselective cation channels in fura-2-charged RBL-hm 1 cells
Type: cell-based, rat
Conditions: Table 17

IC50	SMILES
7.57 µM	COc1cc2c(cc1OC)C(C(C(=O)NCCC(C)(C)C)c1ccccc1)=NCC2 (stereo not shown)

Same assay, conditions: Table 20

IC50	SMILES
3.47 µM	COc1cc2c(cc1O)CCN=C2C(C(=O)N(CCc1ccc(OC)c(OC)c1OC)CCc1ccc(OC)c(OC)c1OC)c1ccccc1 (stereo not shown)

Test system: Ca^2+-ATPase of intracellular IP3-sensitive Ca^2+-stores
Test: not given
Conditions: in words; cited from earlier work

SMILES	inhibition of Ca^2+-ATPase
C/C=C(/C)C(=O)O[C@H]1C(C)=C2[C@H]([C@@H]1OC(=O)CCCCCCC)[C@@](C)(OC(C)=O)C[C@H](OC(=O)CCC)[C@@]1(O)[C@H]2OC(=O)[C@@]1(C)O [THAPSIGARGIN]	selectively and irreversibly inhibits
